Assay results: patent US8318914B2, “Elongases and methods for producing polyunsaturated fatty acids in transgenic organisms” (priority 2007, dated 2012)
Read-outs that look alike come from different tables or passages of the source.

Tests used:
[1] = tested on: yeast strain INVSC-1 with empty vector pYES2.1/V5-His-TOPO; assay: Vector control of Example 5: yeast with empty vector pYES2.1/V5-His-TOPO fed fatty acids; format: cell-based; conditions: 250 μM fatty acid fed to yeast INVSC-1, 12 h induction medium
Experimental: Plasmid pYES-D9Elo(Ro) was transformed into the yeast strain INVSC-1 (Invitrogen) following the manufacturer's instructions and selected on plates with DOB-U agar on the basis of uracil auxotrophy. Positive colonies were identified by PCR. To this end, in each case 1 μl of defrosted cells, 200 μM dNTPs, 2.5 U Taq polymerase and 100 pmol of each primer were used to carry out in a total volume of 50 μl. The PCR conditions were as follows: first denaturation at 95° C. for 5 minutes, followed by 30 cycles of 30 seconds at 94° C., 1 minute at 55° C. and 2 minutes at 72° C., and a last elongation step for 10 minutes at 72° C. In parallel, the empty vector pYES2.1/V5-His-TOPO was transformed in the abovedescribed manner into competent yeast cells of the strain INVSC-1. Yeast cells with the plasmid pYES-D9Elo(Ro) and pYES2.1/V5-His-TOPO were incubated for 12 h in liquid DOB-U medium at 28° C., 200 rpm, and then for a further 12 h in induction medium (DOB-U+2% (w/v) galactose+2% (w/v) raffinose) and 250 μM of fatty acids added to the medium. The specificity and activity of the gene to be characterized can be determined with reference to the added fatty acids.
(§1) The yeast cells from the main cultures were harvested by centrifugation (100×g, 5 min, 20° C.) and washed with 100 mM NaHCO3, pH 8.0 to remove residual medium and fatty acids. Starting with the yeast cell sediments, fatty acid methyl esters (FAMEs) were prepared by acid methanolysis. To this end, the cell sediments were incubated for one hour at 80° C. together with 2 ml of 1 N methanolic sulfuric acid and 2% (v/v) of dimethoxypropane. The FAMEs were extracted twice with petroleum ether (PE). To remove nonderivatized fatty acids, the organic phases were washed in each case once with 2 ml of 100 mM NaHCO3, pH 8.0 and 2 ml of distilled water. Thereafter, the PE phases were dried with Na2SO4, evaporated under argon and taken up in 100 μl of PE. The samples were separated on a DB-23 capillary column (30 m, 0.25 mm, 0.25 μm, Agilent) in a Hewlett-Packard 6850 gas chromatograph equipped with flame ionization detector. The conditions for the GLC analysis are as follows: the oven temperature was programmed from 50° C. to 250° C. with an increment of 5° C./min and finally 10 min at 250° C. (holding).
The signals are identified by comparing the retention times with corresponding fatty acid standards (Sigma). The methodology is described for example in Napier and Michaelson, 2001, Lipids. 36(8):761-766; Sayanova et al., 2001, Journal of Experimental Botany. 52(360):1581-1585, Sperling et al., 2001, Arch. Biochem. Biophys. 388(2):293-298 and Michaelson et al., 1998, FEBS Letters. 439(3):215-218.

[2] = tested on: D9Elo(Ro); format: cell-based, Rhizopus oryzae; conditions: 250 μM fatty acid fed to transformed yeast INVSC-1, 12 h induction medium
Experimental: Positive colonies were identified by PCR. […] In parallel, the empty vector pYES2.1/V5-His-TOPO was transformed in the abovedescribed manner into competent yeast cells of the strain INVSC-1. […] The specificity and activity of the gene to be characterized can be determined with reference to the added fatty acids.
as §1, with “The samples were separated on a DB-23 capillary column (30 m, 0.25 mm, 0.25 μm, Agilent) in a Hewlett-Packard 6850 gas chromatograph equipped with flame ionization detector.” left out
(§2) The signals are identified by comparing the retention times with corresponding fatty acid standards (Sigma). […] Biochem. Biophys.

[3] = tested on: D6Elo(Pir); assay: Yeast feeding assay: elongation of fed fatty acids by yeast expressing pYES-D6Elo(Pir), GC analysis of FAMEs; format: cell-based, Pythium irregulare; conditions: for Elongation efficiency in percent, pYES-D6Elo(Pir): 250 μM fatty acid fed to transformed yeast INVSC-1, 12 h induction medium, (area product/area substrate + product)*100
Experimental: (§3) Plasmid pYES-d6Elo(Pir) was then transformed into the yeast strain INVSC-1 (Invitrogen) following the manufacturer's instructions and selected on plates with DOB-U agar on the basis of uracil auxotrophy. Positive colonies were identified by PCR. To this end, in each case 1 μl of defrosted cells, 200 μM dNTPs, 2.5 U Taq-polymerase and 100 pmol of each primer were used to carry out in a total volume of 50 μl. The PCR conditions were as follows: first denaturation at 95° C. for 5 minuten, followed by 30 cycles of 30 seconds at 94° C., 1 minute at 55° C. and 2 minutes at 72° C., and a last elongation step for 10 minutes at 72° C. In parallel, the empty vector pYES2.1/V5-His-TOPO was transformed in the abovedescribed manner into competent yeast cells of the strain INVSC-1. Yeast cells with the plasmid pYES-d6Elo(Pir) and pYES2.1/V5-His-TOPO, respectively, were incubated for 12 h in liquid DOB-U medium at 28° C., 200 rpm, and then for a further 12 h in induction medium (DOB-U+2% (w/v) galactose+2% (w/v) raffinose) and 250 μM of fatty acids added to the medium. The specificity and activity of the gene to be characterized can be determined with reference to the added fatty acids.
as §1, with “The samples were separated on a DB-23 capillary column (30 m, 0.25 mm, 0.25 μm, Agilent) in a Hewlett-Packard 6850 gas chromatograph equipped with flame ionization detector.” left out
as §2
(§4) Table 3 describes the reaction of fatty acids by the plasmids which had been introduced into the yeasts. The conversion rates for the various exogenously added fatty acids are indicated in percent elongation efficiency. The blank vector pYES2.1/V5-His-TOPO acts as control for the activity of the gene sequence D6Elo(Pir). Fatty acids which have been formed in the yeasts with the vector pYES-D6Elo(Pir), but not in yeasts with the vector pYES2.1/V5-His-TOPO, can be attributed to the activity of the D6Elo(Pir) translation product.

[4] = tested on: yeast strain INVSC-1 with empty vector pYES2.1/V5-His-TOPO; assay: Vector control of Example 4: yeast with empty vector pYES2.1/V5-His-TOPO fed fatty acids; format: cell-based; conditions: blank vector control; 250 μM fatty acid fed to yeast INVSC-1, 12 h induction medium
Experimental: as §3
as §1, with “The samples were separated on a DB-23 capillary column (30 m, 0.25 mm, 0.25 μm, Agilent) in a Hewlett-Packard 6850 gas chromatograph equipped with flame ionization detector.” left out
as §2, §4

[5] = tested on: D5Elo(Eg); format: cell-based, Euglena gracilis
Experimental: Plasmid pYES-D5Elo(Eg) was then transformed into the yeast strain INVSC-1 (Invitrogen) following the manufacturer's instructions and selected on plates with DOB-U agar on the basis of uracil auxotrophism. […] In parallel, the empty vector pYES2.1/V5-His-TOPO was transformed in the abovedescribed manner into competent yeast cells of the strain INVSC-1. Yeast cells with the plasmid pYES-D5Elo(Eg) and pYES2.1/V5-His-TOPO were incubated for 12 h in liquid DOB-U medium at 28° C., 200 rpm, and then for a further 12 h in induction medium (DOB-U+2% (w/v) galactose+2% (w/v) raffinose) and 250 μM of fatty acids added to the medium. The specificity and activity of the gene to be characterized can be determined with reference to the added fatty acids. […]
The substrate specificity of D5Elo(Eg) [SEQ ID NO: 8] was determined after expression and feeding of various fatty acids (FIG. 2). […] In FIG. 2A, yeasts were analyzed which had not been fed exogenously added fatty acids. […] In FIG. 2C, the yeast cells were analyzed after transformation with plasmid pYES-D5Elo(Eg) and feeding the fatty acid 20:4Δ5,8,11,14. […] In FIG. 2D, the yeast cells were analyzed after transformation with plasmid pYES-D5Elo(Eg) and feeding the fatty acid 20:5Δ5,8,11,14,17.

[6] = tested on: yeast strain INVSC-1 with empty vector pYES2.1/V5-His-TOPO; assay: Vector control of Example 6: yeast with empty vector pYES2.1/V5-His-TOPO fed fatty acids; format: cell-based; conditions: 250 μM fatty acid fed to yeast INVSC-1, 12 h induction medium
Experimental: Plasmid pYES-D5Elo(Eg) was then transformed into the yeast strain INVSC-1 (Invitrogen) following the manufacturer's instructions and selected on plates with DOB-U agar on the basis of uracil auxotrophism. Positive colonies were identified by PCR. To this end, in each case 1 μl of defrosted cells, 200 μM dNTPs, 2.5 U Taq polymerase and 100 pmol of each primer were used to carry out in a total volume of 50 μl. The PCR conditions are as follows: first denaturation at 95° C. for 5 minutes, followed by 30 cycles of 30 seconds at 94° C., 1 minute at 55° C. and 2 minutes at 72° C., and a last elongation step for 10 minutes at 72° C. In parallel, the empty vector pYES2.1/V5-His-TOPO was transformed in the abovedescribed manner into competent yeast cells of the strain INVSC-1. Yeast cells with the plasmid pYES-D5Elo(Eg) and pYES2.1/V5-His-TOPO were incubated for 12 h in liquid DOB-U medium at 28° C., 200 rpm, and then for a further 12 h in induction medium (DOB-U+2% (w/v) galactose+2% (w/v) raffinose) and 250 μM of fatty acids added to the medium. The specificity and activity of the gene to be characterized can be determined with reference to the added fatty acids.
The yeast cells from the main cultures were harvested by centrifugation (100×g, 5 min, 20° C.) and washed with 100 mM NaHCO3, pH 8.0 to remove residual medium and fatty acids. […]

| SMILES | Elongation efficiency as a percentage, pYes2.1/V5-His-TOPO [1] [%] | Elongation efficiency as a percentage, D9Elo(Ro) [2] [%] | Elongation efficiency in percent, pYES-D6Elo(Pir) [3] [%] | Elongation efficiency in percent, pYES2.1/V5-His-TOPO [4] [%] | Elongation efficiency as a percentage, D5Elo(EG) [5] [%] | Elongation efficiency as a percentage, pYes2.1/V5-His-TOPO [6] [%] | Elongation efficiency as a percentage, D5Elo(EG) ([5]; 250 μM fatty acid fed to transformed yeast INVSC-1, 12 h induction medium) [%] | Substrate preference of D6Elo(Pir), in words ([3]; yeast feeding, summary of Table 3) |
| --- | --- | --- | --- | --- | --- | --- | --- | --- |
| CCCCCC/C=C\CCCCCCCC(=O)O [16:1A9] | 2.4 | 36.6 | – | – | – | – | – | – |
| CCCCCCCC/C=C\CCCCCCCC(=O)O [18:1Δ9, oleic acid] | 0.0 | 8.3 | – | – | – | – | – | – |
| CCCCCC/C=C\CCCCCCCCCC(=O)O [18:1Δ11, cis-vaccenic acid] | – | – | 28.6 | 0.0 | – | – | – | – |
| CCCCC/C=C\C/C=C\CCCCCCCC(=O)O [18:2Δ9, 12, linoleic acid] | 0.0 | 19.3 | 11.1 | 1.1 | – | – | – | – |
| CCCCC/C=C\C/C=C\C/C=C\CCCCC(=O)O [18:3Δ6, 9, 12, γ-linolenic acid] | – | – | 27.1 | 1.3 | 2.9 | 0.9 | – | – |
| CC/C=C\C/C=C\C/C=C\CCCCCCCC(=O)O [18:3Δ9, 12, 15, linolenic acid] | 0.0 | 49.3 | 19.1 | 1.4 | – | – | – | – |
| CC/C=C\C/C=C\C/C=C\C/C=C\CCCCC(=O)O [18:4Δ6, 9, 12, 15, stearidonic acid] | – | – | 38.7 | 1.2 | – | – | – | – |
| CCCCC/C=C\C/C=C\C/C=C\C/C=C\CCCC(=O)O [20:4Δ5, 8, 11, 14, arachidonic acid] | – | – | 6.7 | 0.0 | – | 0.0 | 46.1 | Less activity |
